Patent US20240132464A1, “HETEROCYCLIC COMPOUNDS AS E3 LIGASE INHIBITORS” (Accutar Biotechnology Inc., priority 2022, published 2024)

Biological target: T1, GID4 (Uniprot ID: Q81VV7, residues 124-289) (Homo sapiens, UniProt Q8IVV7)
T1 construct: GID4 (Uniprot ID: Q81VV7, residues 124-289)
T1 sequence (Q8IVV7 124-289): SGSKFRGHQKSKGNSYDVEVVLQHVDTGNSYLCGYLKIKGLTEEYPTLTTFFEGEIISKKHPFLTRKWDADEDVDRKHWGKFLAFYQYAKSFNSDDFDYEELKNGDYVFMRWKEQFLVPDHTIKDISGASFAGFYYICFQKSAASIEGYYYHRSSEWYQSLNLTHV
Experiment: GID4 competitive binding assay (AlphaScreen, GID4/degron peptide PGLW)
Details: 24 nM GID4, 48 nM biotinylated degron peptide PGLW, 4° C., read-out: IC50 (Inhibition of GID4/Degron binding by test compounds)
Summary of the method: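 His-tagged human GID4 (residues 124-289, 24 nM) pre-incubated 2 h at 4 °C with 48 nM biotinylated PGLW peptide and compound in HEPES pH 7.5 buffer, 2% DMSO (final). AlphaScreen streptavidin donor/Ni-NTA acceptor beads added for 1 h; IC50 from nonlinear fit of % inhibition versus DMSO.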

SMILES	IC50
CNc1cc(N2CCN(C)[C@H](c3ccccc3Br)C2)nc(NC)n1 (stereo in doubt) [Compound 80, (R/S)-6-(3-(2-bromophenyl)-4-methylpiperazin-1-yl)-N2,N4-dimethylpyrimidine-2,4-diamine]	0.5 to 5 µM
Nc1nc(NCC2CC2)cc(N2CCNC(c3ccccc3Br)C2)n1 (single isomer, unassigned) [Compound 111, (R/S)-6-(3-(2-bromophenyl)piperazin-1-yl)-N4-(cyclopropylmethyl)pyrimidine-2,4-diamine]	0.5 to 5 µM
Nc1nc(N2CCCC(c3ccn[nH]3)C2)c2cnccc2n1 (stereo not shown) [Compound 218, 4-(3-(1H-pyrazol-5-yl)piperidin-1-yl)pyrido[4,3-d]pyrimidin-2-amine]	> 5 µM
CC(C)c1cc(N2CCNC(c3cnn4ccccc34)C2)nc(N)n1 (stereo not shown) [Compound 22, 4-isopropyl-6-(3-(pyrazolo[1,5-a]pyridin-3-yl)piperazin-1-yl)pyrimidin-2-amine]	< 0.5 µM
CC(C)c1cc(N2CCOC(c3ccccc3Br)C2)nc(N)n1 (racemic) [Compound 158, (R/S)-4-(2-(2-bromophenyl)morpholino)-6-isopropylpyrimidin-2-amine]	> 5 µM
CC(C)c1cc(N2CCNC(c3nnc[nH]3)C2)nc(N)n1 (stereo not shown) [Compound 204, 4-(3-(4H-1,2,4-triazol-3-yl)piperazin-1-yl)-6-isopropylpyrimidin-2-amine]	> 5 µM
Nc1nc(NC2CC2)nc(N2CCOC(c3ccccc3Br)C2)n1 (stereo not shown) [Compound 61, 6-(2-(2-bromophenyl)morpholino)-N2-cyclopropyl-1,3,5-triazine-2,4-diamine]	0.5 to 5 µM
c1ccn2c(C3CCCN(c4ncnc5c4CCCN5)C3)cnc2c1 (stereo not shown) [Compound 58, 4-(3-(imidazo[1,2-a]pyridin-3-yl)piperidin-1-yl)-5,6,7,8-tetrahydropyrido[2,3-d]pyrimidine]	0.5 to 5 µM
Nc1nc2c(c(N3CCNC(c4nnc[nH]4)C3)n1)CSC2 (stereo not shown) [Compound 185, 4-(3-(4H-1,2,4-triazol-3-yl)piperazin-1-yl)-5,7-dihydrothieno[3,4-d]pyrimidin-2-amine]	0.5 to 5 µM
CC(C)c1cc(N2CCCC(O)(c3ccccc3Br)C2)nc(N)n1 (stereo not shown) [Compound 236, 1-(2-amino-6-isopropylpyrimidin-4-yl)-3-(2-bromophenyl)piperidin-3-ol]	0.5 to 5 µM
CC(C)c1nc(N2CCNC(c3cnc4ccccn34)C2)c2cc[nH]c2n1 (stereo not shown) [Compound 375, 4-(3-(imidazo[1,2-a]pyridin-3-yl)piperazin-1-yl)-2-isopropyl-7H-pyrrolo[2,3-d]pyrimidine]	< 0.5 µM
CC(C)c1cc(N2CCNC(c3cc(N4CCNCC4)ccc3Br)C2)nc(N)n1 (stereo not shown) [Compound 41, 4-(3-(2-bromo-5-(piperazin-1-yl)phenyl)piperazin-1-yl)-6-isopropylpyrimidin-2-amine]	< 0.5 µM
Nc1nc(NC2CC2)cc(N2CCN[C@@H](c3ccccc3Br)C2)n1 (racemic) [Compound 122, (S/R)-6-(3-(2-bromophenyl)piperazin-1-yl)-N4-cyclopropylpyrimidine-2,4-diamine]	< 0.5 µM
CN(C)C(=O)CCC1CCCN(c2nc(N)nc3c2CCCN3)C1 (stereo not shown) [Compound 135, 3-(1-(2-amino-5,6,7,8-tetrahydropyrido[2,3-d]pyrimidin-4-yl)piperidin-3-yl)-N,N-dimethylpropanamide]	0.5 to 5 µM
Cn1nccc1C1CCCN(c2nc(N)nc3c2CCC3)C1 (stereo not shown) [Compound 215, 4-(3-(1 methyl-1H-pyrazol-5-yl)piperidin-1-yl)-6,7-dihydro-5H-cyclopenta[d]pyrimidin-2-amine]	> 5 µM
CNc1cc(N2CCN[C@H](c3ccccc3Br)C2)nc(NC)n1 (stereo in doubt) [Compound 131, (R/S)-6-(3-(2-bromophenyl)piperazin-1-yl)-N2,N4-dimethylpyrimidine-2,4-diamine]	< 0.5 µM
CC(C)c1cc(N2CCNC(c3cnc4ccccn34)C2)nc(N)n1 (stereo not shown) [Compound 32, 4-(3-(imidazo[1,2-a]pyridin-3-yl)piperazin-1-yl)-6-isopropylpyrimidin-2-amine]	< 0.5 µM
Nc1nc(N)c(F)c(N2CCOC(c3ccccc3Br)C2)n1 (single isomer, unassigned) [Compound 49, (R/S)-6-(2-(2-bromophenyl)morpholino)-5-fluoropyrimidine-2,4-diamine]	> 5 µM
CC(C)c1cc(N2CCNC(c3nnc4ccccn34)C2)nc(N)n1 (stereo not shown) [Compound 188, 4-(3-([1,2,4]triazolo[4,3-a]pyridin-3-yl)piperazin-1-yl)-6-isopropylpyrimidin-2-amine]	> 5 µM

Further lines, results first:

IC50	SMILES
> 5 µM	Nc1nc(NC2CC2)cc(N2CCO[C@H](c3ccccc3Br)C2)n1 (stereo in doubt) [Compound 97, (R/S)-6-(2-(2-bromophenyl)morpholino)-N4-cyclopropylpyrimidine-2,4-diamine]
0.5 to 5 µM	Cc1cc(C(=O)NCCCN(C)C)ccc1-c1cc(O)c2ncccc2c1 [Compound 320, N-(3-(dimethylamino)propyl)-4-(8-hydroxyquinolin-6-yl)-3-methylbenzamide]
> 5 µM	CN(C)CCCNC(=O)c1ccc(-c2cc(O)c3c(c2)CCCN3)cc1 [Compound 284, N-(3-(dimethylamino)propyl)-4-(8-hydroxy-1,2,3,4-tetrahydroquinolin-6-yl)benzamide]
> 5 µM	Nc1nccc2c(O)cc(-c3cccc(C(=O)N4CCCC4)c3)cc12 [Compound 266, (3-(1-amino-5-hydroxyisoquinolin-7-yl)phenyl)(pyrrolidin-1-yl)methanone]
0.5 to 5 µM	CN1CCN(C(=O)c2ccc(Br)c([C@H]3CN(c4cc(N)nc(N)n4)CCN3)c2)CC1 (racemic) [Compound 16, (S/R)-(4-bromo-3-(4-(2,6-diaminopyrimidin-4-yl)piperazin-2-yl)phenyl)(4-methylpiperazin-1-yl)methanone]
0.5 to 5 µM	CC(C)c1cc(N2CCC=C(c3ncn4ccccc34)C2)nc(N)n1 [Compound 238, 4-(5-(imidazo[1,5-a]pyridin-1-yl)-3,6-dihydropyridin-1(2H)-yl)-6-isopropylpyrimidin-2-amine]
0.5 to 5 µM	CN(C)CCCC(=O)N1CC=C(c2cc(O)c3ncccc3c2)CC1 [Compound 309, 4-(dimethylamino)-1-(4-(8-hydroxyquinolin-6-yl)-3,6-dihydropyridin-1(2H)-yl)butan-1-one]
0.5 to 5 µM	CN1CCC(NC(=O)c2cccc(-c3ccc4ccnc(N)c4c3)c2)CC1 [Compound 345, 3-(1-aminoisoquinolin-7-yl)-N-(1-methylpiperidin-4-yl)benzamide]
0.5 to 5 µM	CN1CCN(c2ccc(Br)c(C3CN(c4cc(N)nc(N)n4)CCN3)c2)CC1 (single isomer, unassigned) [Compound 51, R or S 6-(3-(2-bromo-5-(4-methylpiperazin-1-yl)phenyl)piperazin-1-yl)pyrimidine-2,4-diamine]
< 0.5 µM	CN1CCC(CNC(=O)c2ccc(-c3cc(O)c4ncccc4c3)cc2)C1 (stereo not shown) [Compound 292, 4-(8-hydroxyquinolin-6-yl)-N-((1-methylpyrrolidin-3-yl)methyl)benzamide]
0.5 to 5 µM	Nc1cc(N2CCN(CCO)[C@H](c3ccccc3Br)C2)nc(N)n1 (stereo in doubt) [Compound 67, (R/S)-2-(2-(2-bromophenyl)-4-(2,6-diaminopyrimidin-4-yl)piperazin-1-yl)ethan-1-ol]
0.5 to 5 µM	Oc1cc(C2=CCNCC2)cc2cccnc12 [Compound 324, 6-(1,2,3,6-tetrahydropyridin-4-yl)quinolin-8-ol]
< 0.5 µM	CC(C)c1cc(N2CCCC(c3cnc4ccccn34)C2)c2cc[nH]c2n1 (stereo not shown) [Compound 370, 3-(1-(6-isopropyl-1H-pyrrolo[2,3-b]pyridin-4-yl)piperidin-3-yl)imidazo[1,2-a]pyridine]
< 0.5 µM	CN(C)[C@H]1CC[C@@H](NC(=O)c2ccc(-c3cc(O)c4ncccc4c3)cc2)CC1 [Compound 286, N-(cis-4-(dimethylamino)cyclohexyl)-4-(8-hydroxyquinolin-6-yl)benzamide]
< 0.5 µM	CN1CCC(NC(=O)c2ccc(-c3cc(O)c4ncccc4c3)cc2)CC1 [Compound 297, 4-(8-hydroxyquinolin-6-yl)-N-(1-methylpiperidin-4-yl)benzamide]
> 5 µM	CN1CCN(C(=O)c2cccc(-c3ccc4ccnc(N)c4c3)c2)CC1 [Compound 351, (3-(1-aminoisoquinolin-7-yl)phenyl)(4-methylpiperazin-1-yl)methanone]
> 5 µM	CC(C)c1cc(Nc2cccc(CC3CCNC3=O)c2)nc(N)n1 (stereo not shown) [Compound 197, 3-(3-((2-amino-6-isopropylpyrimidin-4-yl)amino)benzyl)pyrrolidin-2-one]
0.5 to 5 µM	CNc1cc(N2CCCC(c3csc4ccccc34)C2)nc(N)n1 (stereo not shown) [Compound 82, 6-(3-(benzo[b]thiophen-3-yl)piperidin-1-yl)-N4-methylpyrimidine-2,4-diamine]
0.5 to 5 µM	CC(C)c1cc(N2CCNC(c3cc(C(=O)N4CCN(C)CC4)ccc3Br)C2)nc(N)n1 (single isomer, unassigned) [Compound 18, (S/R)-(3-(4-(2-amino-6-isopropylpyrimidin-4-yl)piperazin-2-yl)-4-bromophenyl)(4-methylpiperazin-1-yl)methanone]
< 0.5 µM	CN(C)CCCNC(=O)c1ccc(-c2cc(O)c3ncccc3c2)nc1 [Compound 294, N-(3-(dimethylamino)propyl)-6-(8-hydroxyquinolin-6-yl)nicotinamide]
> 5 µM	CC(C)c1cc(N2CCC=C(c3ccccc3Br)C2)nc(N)n1 [Compound 230, 4-(5-(2-bromophenyl)-3,6-dihydropyridin-1(2H)-yl)-6-isopropylpyrimidin-2-amine]
